# Laboratory results: US20140051730A1, “THERAPEUTIC USE OF DIMIRACETAM TO PREVENT THE HAND AND FOOT SYNDROME CAUSED BY SORAFENIB” (NEUROTUNE AG, priority 2010, published 2014)
# Legend:
# [1] = test system: sorafenib induced allodynia; assay: Chronic experiment: rat cold plate test, sorafenib induced allodynia; format: in vivo; conditions: for Licking latency, Before all Treatments: baseline, mean of 8 rats
# Method: 1986 (86/609/EEC) for experimental animal care.
# Dimiracetam, duloxetine and gabapentin were dissolved in water.
# Sorafenib was dissolved in a vehicle constituted by 1% ethanol+1% Cremophor+[…]. Sorafenib was administered once daily for 14 days. Dimiracetam was administered by oral gavage twice daily for 14 days (co-administered with sorafenib).
# P values≦0.05 were considered significant.
# [2] = test system: sorafenib induced allodynia; assay: Acute experiment: rat cold plate test, sorafenib allodynia; conditions: for Acute antiallodynic efficacy on sorafenib induced allodynia (in words): single p.o. dose on day 14: dimiracetam 300, gabapentin 100, duloxetine 30 mg/kg, rat cold plate
# Method: Male Sprague Dowley adult rats (200-220 g—aged 7 weeks) were used. Groups of 4 rats were housed in 26 by 41 cm cages that were placed in the experimental room 24 h before the test for acclimatization. The animals were fed a standard laboratory diet and tap water ad libitum and kept at 23±1° C. with a 12 h light/dark cycle, light on at 7 a.m. All experiments were carried out in accordance with the European Communities Council Directive of 24 Nov. 1986 (86/609/EEC) for experimental animal care. All efforts were made to minimize the number of animals used and their suffering.
# Dimiracetam, duloxetine and gabapentin were dissolved in water. Drug concentrations were adjusted to a volume of 10 ml/kg for dosing by oral administration or i.p. injection. Sorafenib was dissolved in a vehicle composed by 1% ethanol+1% Cremophor+98% saline for i.p. injection.
# Control rats were treated with an equal volume of the sorafenib vehicle. Sorafenib was administered once daily for 14 consecutive days. Dimiracetam, gabapentin and duloxetine were administered once daily on day 14 after sorafenib treatment.
# Rats were placed inside a stainless steel container, thermostatically set at 4° C. in a precision water-bath from KW Mechanical Workshop, Siena, Italy. Reaction times (in seconds) were measured with a stop-watch before and at regular intervals; the endpoint used was the licking of the fore or hind paws. An arbitrary cut-off time of 60 s was adopted (see Beyreuther et al., Eur. J. Pharmacol. 565, 98-104, 2007).
# All experimental results are given as the mean±S.E.M. An analysis of variance, ANOVA, followed by Fisher's protected least significant difference procedure for post hoc comparison, was used to verify significance between two means of behavioral results. Data were analyzed with the StatView software for the Macintosh (1992). P values≦0.05 were considered significant.
# [3] = Blood levels in healthy volunteers during Phase I studies; format: in vivo; conditions: 1600 bid dose (3200 mg daily)
# Method: Blood levels were determined in healthy volunteers during Phase I studies.
# The blood levels were determined for 1600 bid dose (i.e. 3200 mg daily).
# [4] = 15 min after single p.o. dose (dimiracetam 300, gabapentin 100, duloxetine 30 mg/kg) on day 14 of sorafenib 10 mg/kg
# [5] = 30 min after single p.o. dose (dimiracetam 300, gabapentin 100, duloxetine 30 mg/kg) on day 14 of sorafenib 10 mg/kg
# [6] = 60 min after single p.o. dose (dimiracetam 300, gabapentin 100, duloxetine 30 mg/kg) on day 14 of sorafenib 10 mg/kg
# [7] = baseline before all treatments, group later given test drug p.o. + sorafenib 10 mg/kg once daily 14 days, cold plate 4° C., mean ± S.E.M., 5 rats
# [8] = day 14 of sorafenib 10 mg/kg, before single p.o. dose of test drug, cold plate 4° C.
structure (smiles),measurement,setting,value
"O=C1CN2C(=O)CCC2N1 (centres unmarked) [DIMIRACETAM, 2,5-dioxohexahydro-1H-pyrrolo[1,2-a]imidazole]","Licking latency, Before all Treatments",[1]; group given dimiracetam 150 mg/kg p.o. b.i.d. + sorafenib 10 mg/kg i.p. once daily 14 days,27.3 ± 1.1 s
same,"Licking latency, After 14 days of treatment, 1 h","[1]; dimiracetam 150 mg/kg p.o. b.i.d. + sorafenib 10 mg/kg i.p. 14 days, 1 h after end of treatment",23.8 ± 1.1 s
same,"Licking latency, After 14 days of treatment, 4 h","[1]; dimiracetam 150 mg/kg p.o. b.i.d. + sorafenib 10 mg/kg i.p. 14 days, 4 h after end of treatment",23.3 ± 1.1 s
same,"Licking latency, After 14 days of treatment, 8 h","[1]; dimiracetam 150 mg/kg p.o. b.i.d. + sorafenib 10 mg/kg i.p. 14 days, 8 h after end of treatment",22.8 ± 1.2 s
same,"Licking latency, After 14 days of treatment, 24 h","[1]; dimiracetam 150 mg/kg p.o. b.i.d. + sorafenib 10 mg/kg i.p. 14 days, 24 h after end of treatment",21.9 ± 1.1 s
same,"Licking latency, After 14 days of treatment, 48 h","[1]; dimiracetam 150 mg/kg p.o. b.i.d. + sorafenib 10 mg/kg i.p. 14 days, 48 h after end of treatment",19.0 ± 0.6 ^ s
same,"Licking latency, After 14 days of treatment, 72 h","[1]; dimiracetam 150 mg/kg p.o. b.i.d. + sorafenib 10 mg/kg i.p. 14 days, 72 h after end of treatment",14.9 ± 0.6 s
same,"Licking latency, After 14 days of treatment, Pretest","[1]; dimiracetam 150 mg/kg p.o. b.i.d. + sorafenib 10 mg/kg i.p. 14 days, before last administration",24.3 ± 0.8 s
same,Duration of statistically significant antiallodynic effect after end of treatment,[1]; dimiracetam 150 mg/kg p.o. b.i.d. for 14 consecutive days with sorafenib,up to 48 h
same,Chronic antiallodynic effect (in words),"[1]; dimiracetam 150 mg/kg p.o. b.i.d. for 14 consecutive days, evaluated on day 14",statistically significant antiallodynic effect
same,Development of tolerance (in words),"[1]; general statement, no data given",not to develop tolerance
same,"Licking latency, 14° day 15 min",[2]; [4],19.8 ± 1.5 s
same,"Licking latency, 14° day 30 min",[2]; [5],16.0 ± 1.9 s
same,"Licking latency, 14° day 60 min",[2]; [6],15.4 ± 1.4 s
same,"Licking latency, Pre test before all treatments",[2]; [7],26.8 ± 3.0 s
same,"Licking latency, Pre test before all treatments","[2]; baseline, group given sorafenib vehicle i.p. + dimiracetam 300 mg/kg p.o. (no sorafenib)",27.2 ± 2.8 s
same,"Licking latency, 14° day Pre test",[2]; [8],15.8 ± 1.8 s
same,Acute antiallodynic efficacy on sorafenib induced allodynia (in words),[2],statistically significant effect on sorafenib induced allodynia 15 min after administration
same,"Licking latency, 14° day Pre test","[2]; vehicle i.p. 14 days (no sorafenib), before dimiracetam 300 mg/kg p.o.",28.4 ± 2.1 s
same,"Licking latency, 14° day 15 min","[2]; vehicle i.p. (no sorafenib), 15 min after dimiracetam 300 mg/kg p.o.",29.0 ± 1.9 s
same,"Licking latency, 14° day 30 min","[2]; vehicle i.p. (no sorafenib), 30 min after dimiracetam 300 mg/kg p.o.",28.2 ± 2.3 s
same,"Licking latency, 14° day 60 min","[2]; vehicle i.p. (no sorafenib), 60 min after dimiracetam 300 mg/kg p.o.",27.2 ± 3.0 s
same,"Blood level, mean minimal level over 24 hours (Cmin)",[3],136 µM
same,Cmax,"[3]; human, blood, read-out: Blood level, mean maximal level over 24 hours (Cmax)",536 µM
"CNCC[C@H](Oc1cccc2ccccc12)c1cccs1 [DULOXETINE, duloxetine]","Licking latency, 14° day 15 min",[2]; [4],14.2 ± 1.6 s
same,"Licking latency, 14° day 30 min",[2]; [5],14.6 ± 1.5 s
same,"Licking latency, 14° day 60 min",[2]; [6],13.4 ± 1.7 s
same,"Licking latency, Pre test before all treatments",[2]; [7],27.8 ± 1.7 s
same,"Licking latency, 14° day Pre test",[2]; [8],13.2 ± 1.2 s
same,Acute antiallodynic efficacy on sorafenib induced allodynia (in words),[2],no significant effect
"NCC1(CC(=O)O)CCCCC1 [GABAPENTIN, gabapentin]","Licking latency, 14° day 15 min",[2]; [4],13.2 ± 1.8 s
same,"Licking latency, 14° day 30 min",[2]; [5],13.6 ± 1.2 s
same,"Licking latency, 14° day 60 min",[2]; [6],13.8 ± 1.8 s
same,"Licking latency, Pre test before all treatments",[2]; [7],26.8 ± 2.3 s
same,"Licking latency, 14° day Pre test",[2]; [8],15.4 ± 2.0 s
same,Acute antiallodynic efficacy on sorafenib induced allodynia (in words),[2],no significant effect
"CNC(=O)c1cc(Oc2ccc(NC(=O)Nc3ccc(Cl)c(C(F)(F)F)c3)cc2)ccn1 [SORAFENIB, sorafenib]","Licking latency, Before all Treatments",[1]; group given water + sorafenib 10 mg/kg i.p. once daily 14 days,26.9 ± 1.4 s
same,"Licking latency, After 14 days of treatment, Pretest",[1]; water + sorafenib 10 mg/kg i.p. once daily 14 days,14.8 ± 1.3 s
same,"Licking latency, After 14 days of treatment, 1 h","[1]; water + sorafenib 10 mg/kg i.p. once daily 14 days, 1 h",14.3 ± 1.4 s
same,"Licking latency, After 14 days of treatment, 4 h","[1]; water + sorafenib 10 mg/kg i.p. once daily 14 days, 4 h",15.1 ± 1.5 s
same,"Licking latency, After 14 days of treatment, 8 h","[1]; water + sorafenib 10 mg/kg i.p. once daily 14 days, 8 h",16.0 ± 1.1 s
same,"Licking latency, After 14 days of treatment, 24 h","[1]; water + sorafenib 10 mg/kg i.p. once daily 14 days, 24 h",14.0 ± 1.1 s
same,"Licking latency, After 14 days of treatment, 48 h","[1]; water + sorafenib 10 mg/kg i.p. once daily 14 days, 48 h",14.3 ± 1.2 s
same,"Licking latency, After 14 days of treatment, 72 h","[1]; water + sorafenib 10 mg/kg i.p. once daily 14 days, 72 h",15.0 ± 1.0 s
same,"Licking latency, Pre test before all treatments","[2]; baseline, group given sorafenib 10 mg/kg i.p. + water p.o.",28.6 ± 2.1 s
same,"Licking latency, 14° day 15 min","[2]; sorafenib 10 mg/kg i.p. once daily 14 days, 15 min after water p.o.",14.0 ± 1.8 s
same,"Licking latency, 14° day 30 min","[2]; sorafenib 10 mg/kg i.p. once daily 14 days, 30 min after water p.o.",13.6 ± 1.8 s
same,"Licking latency, 14° day 60 min","[2]; sorafenib 10 mg/kg i.p. once daily 14 days, 60 min after water p.o.",14.4 ± 2.3 s
same,"Licking latency, 14° day Pre test","[2]; sorafenib 10 mg/kg i.p. once daily 14 days, before water p.o.",13.8 ± 2.0 s
same,Induction of allodynia by sorafenib (in words),"[2]; sorafenib 10 mg/kg i.p. once daily in rats, cold plate, day 14",induced an allodynic responses to thermal stimuli
